Results from the NIST ThermoML archive (doi:10.1021/je0400052).

Tests used:
[1] = xn = mol fraction of the nth substance listed; conditions: 101.3 kPa, Liquid
[2] = refractive index (Na D-line) (dimensionless); xn = mol fraction of the nth substance listed; conditions: 101.3 kPa, Liquid

CCOC(=O)c1ccccc1 [ethyl benzoate] + CCc1ccccc1
Conditions | mass density, [1] [kg/m3] | refractive index, [2] | viscosity, [1] [mPa·s]
303.15 K, x1 = 0.0862 | 875.1 | 1.492 | 0.643
303.15 K, x1 = 0.1804 | 892.6 | 1.4932 | 0.711
303.15 K, x1 = 0.2589 | 910.2 | 1.4934 | 0.767
303.15 K, x1 = 0.3522 | 927.2 | 1.4942 | 0.857
303.15 K, x1 = 0.472 | 950.1 | 1.496 | 0.97
303.15 K, x1 = 0.5625 | 967 | 1.4968 | 1.071
303.15 K, x1 = 0.6722 | 984.9 | 1.4971 | 1.206
303.15 K, x1 = 0.7675 | 1002 | 1.4992 | 1.33
303.15 K, x1 = 0.8678 | 1019 | 1.4998 | 1.496
303.15 K, x1 = 0.9325 | 1040.9 | 1.5003 | 1.615
313.15 K, x1 = 0.0862 | 867 | 1.4911 | 0.57
313.15 K, x1 = 0.1804 | 884.3 | 1.4921 | 0.629
313.15 K, x1 = 0.2589 | 901.3 | 1.493 | 0.682
313.15 K, x1 = 0.3522 | 918.1 | 1.4937 | 0.745
313.15 K, x1 = 0.472 | 941.4 | 1.4954 | 0.844
313.15 K, x1 = 0.5625 | 960.4 | 1.4959 | 0.937
313.15 K, x1 = 0.6722 | 976.2 | 1.4963 | 1.063
313.15 K, x1 = 0.7675 | 993 | 1.4981 | 1.169
313.15 K, x1 = 0.8678 | 1009.7 | 1.4992 | 1.268
313.15 K, x1 = 0.9325 | 1027.4 | 1.4996 | 1.335

CCOC(=O)c1ccccc1 [ethyl benzoate] + Cc1ccc(C)cc1
Conditions | mass density, [1] [kg/m3] | refractive index, [2] | viscosity, [1] [mPa·s]
303.15 K, x1 = 0.0916 | 871.1 | 1.4931 | 0.622
303.15 K, x1 = 0.1757 | 889.3 | 1.4939 | 0.679
303.15 K, x1 = 0.2719 | 908.4 | 1.4951 | 0.765
303.15 K, x1 = 0.3616 | 925.3 | 1.4957 | 0.837
303.15 K, x1 = 0.4681 | 947.1 | 1.4965 | 0.951
303.15 K, x1 = 0.5703 | 964.8 | 1.497 | 1.045
303.15 K, x1 = 0.673 | 982.8 | 1.4983 | 1.181
303.15 K, x1 = 0.7781 | 1000.8 | 1.4988 | 1.325
303.15 K, x1 = 0.8651 | 1022.8 | 1.4995 | 1.469
303.15 K, x1 = 0.937 | 1040.8 | 1.5001 | 1.603
313.15 K, x1 = 0.0916 | 863 | 1.4912 | 0.55
313.15 K, x1 = 0.1757 | 880.9 | 1.4924 | 0.606
313.15 K, x1 = 0.2719 | 899.9 | 1.4948 | 0.686
313.15 K, x1 = 0.3616 | 917.3 | 1.495 | 0.739
313.15 K, x1 = 0.4681 | 937.5 | 1.4956 | 0.825
313.15 K, x1 = 0.5703 | 956 | 1.4963 | 0.9
313.15 K, x1 = 0.673 | 974 | 1.4972 | 1.008
313.15 K, x1 = 0.7781 | 993.2 | 1.4979 | 1.126
313.15 K, x1 = 0.8651 | 1010.2 | 1.4989 | 1.239
313.15 K, x1 = 0.937 | 1028.2 | 1.4996 | 1.339
